Experimental data published in article PMC7001580 (Nature chemical biology, 2016).

Legend:
[1] = molecular target: T1, At2g17340 (Arabidopsis thaliana, UniProt Q949P3); assay: phosphate release, Malachite Green, Hill fit; type: biochemical; conditions: 0.2 mM Ni2+, 30 °C; sigmoidal kinetics
T1 sequence (Q949P3 1-367 limits assumed): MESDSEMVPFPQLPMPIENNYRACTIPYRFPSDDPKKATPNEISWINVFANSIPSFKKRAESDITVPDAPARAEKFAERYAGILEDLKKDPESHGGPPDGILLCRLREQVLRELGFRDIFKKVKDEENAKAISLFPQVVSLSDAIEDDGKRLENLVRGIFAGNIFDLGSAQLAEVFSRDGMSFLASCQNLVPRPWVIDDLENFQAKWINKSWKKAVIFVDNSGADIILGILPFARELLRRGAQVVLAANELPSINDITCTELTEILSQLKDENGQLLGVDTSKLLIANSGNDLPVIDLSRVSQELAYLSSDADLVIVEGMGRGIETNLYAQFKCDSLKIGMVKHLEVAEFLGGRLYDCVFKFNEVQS

[2] = molecular target: T2, PH1575 (Pyrococcus horikoshii, UniProt O59272); assay: phosphate release, Malachite Green, Michaelis-Menten fit; type: biochemical; conditions: Ni2+ as preferred metal
T2 sequence (O59272 1-287): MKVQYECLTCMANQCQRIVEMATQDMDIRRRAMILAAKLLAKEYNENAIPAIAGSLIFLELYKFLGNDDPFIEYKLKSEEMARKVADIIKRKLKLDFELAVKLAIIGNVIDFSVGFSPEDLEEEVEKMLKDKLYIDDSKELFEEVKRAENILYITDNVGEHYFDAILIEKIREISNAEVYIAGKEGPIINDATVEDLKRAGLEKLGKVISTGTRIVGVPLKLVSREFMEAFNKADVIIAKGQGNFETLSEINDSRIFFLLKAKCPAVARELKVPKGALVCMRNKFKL

[3] = molecular target: T3, YMR027W (Saccharomyces cerevisiae, UniProt Q04371); assay: crystal structure, soaking with […] fructose 6-phosphate, […] Å; type: binding; conditions: Mg2+ bound, pH 5.5; active site; protein pretreated with chymotrypsin
T3 sequence (Q04371 1-470): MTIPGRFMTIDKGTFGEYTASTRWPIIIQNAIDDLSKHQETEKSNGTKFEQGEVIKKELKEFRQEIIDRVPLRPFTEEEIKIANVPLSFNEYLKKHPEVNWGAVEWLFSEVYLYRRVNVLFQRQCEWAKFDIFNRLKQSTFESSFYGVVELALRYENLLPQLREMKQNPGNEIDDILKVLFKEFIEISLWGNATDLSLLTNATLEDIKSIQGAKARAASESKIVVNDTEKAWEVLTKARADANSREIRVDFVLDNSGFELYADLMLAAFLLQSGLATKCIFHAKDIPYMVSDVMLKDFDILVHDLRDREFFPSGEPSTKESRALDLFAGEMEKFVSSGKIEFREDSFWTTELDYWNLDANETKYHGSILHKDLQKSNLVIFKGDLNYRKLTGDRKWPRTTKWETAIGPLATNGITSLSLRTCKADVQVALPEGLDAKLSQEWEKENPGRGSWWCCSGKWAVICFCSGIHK

[4] = molecular target: T4, YMR027W (Saccharomyces cerevisiae, UniProt Q04371, D254A); assay: phosphatase activity compared with wild type; type: biochemical; conditions: alanine mutant of signature residue
T4 sequence (Q04371 1-470 D254A): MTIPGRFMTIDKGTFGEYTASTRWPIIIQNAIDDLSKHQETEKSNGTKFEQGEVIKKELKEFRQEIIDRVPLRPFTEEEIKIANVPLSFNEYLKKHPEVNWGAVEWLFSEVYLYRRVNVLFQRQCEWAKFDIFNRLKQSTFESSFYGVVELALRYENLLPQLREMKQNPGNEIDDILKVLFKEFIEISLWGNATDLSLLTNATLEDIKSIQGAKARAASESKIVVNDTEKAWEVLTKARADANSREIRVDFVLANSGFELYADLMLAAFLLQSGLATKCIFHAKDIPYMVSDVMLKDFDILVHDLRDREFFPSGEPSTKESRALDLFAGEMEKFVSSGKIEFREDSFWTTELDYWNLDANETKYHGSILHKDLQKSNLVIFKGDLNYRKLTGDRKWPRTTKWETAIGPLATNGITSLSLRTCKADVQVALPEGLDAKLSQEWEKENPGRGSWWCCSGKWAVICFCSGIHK

[5] = molecular target: T5, At2g17340 (Arabidopsis thaliana, UniProt Q949P3, D220A); assay: phosphatase activity compared with wild type; type: biochemical; conditions: alanine mutant of signature residue
T5 sequence (Q949P3 1-367 D220A limits assumed): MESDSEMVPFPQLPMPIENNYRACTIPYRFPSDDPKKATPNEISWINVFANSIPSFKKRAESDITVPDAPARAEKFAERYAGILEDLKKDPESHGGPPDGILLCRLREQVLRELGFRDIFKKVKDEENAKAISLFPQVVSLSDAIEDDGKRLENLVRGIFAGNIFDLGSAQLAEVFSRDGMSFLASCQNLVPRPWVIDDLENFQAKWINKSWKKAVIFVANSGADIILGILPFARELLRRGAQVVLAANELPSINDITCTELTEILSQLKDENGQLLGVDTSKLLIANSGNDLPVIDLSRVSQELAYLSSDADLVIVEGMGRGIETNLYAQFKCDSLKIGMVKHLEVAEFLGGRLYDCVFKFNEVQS

[6] = molecular target: T6, At2g17340 (Arabidopsis thaliana, UniProt Q949P3, N221A); assay: phosphatase activity compared with wild type; type: biochemical; conditions: alanine mutant of signature residue
T6 sequence (Q949P3 1-367 N221A limits assumed): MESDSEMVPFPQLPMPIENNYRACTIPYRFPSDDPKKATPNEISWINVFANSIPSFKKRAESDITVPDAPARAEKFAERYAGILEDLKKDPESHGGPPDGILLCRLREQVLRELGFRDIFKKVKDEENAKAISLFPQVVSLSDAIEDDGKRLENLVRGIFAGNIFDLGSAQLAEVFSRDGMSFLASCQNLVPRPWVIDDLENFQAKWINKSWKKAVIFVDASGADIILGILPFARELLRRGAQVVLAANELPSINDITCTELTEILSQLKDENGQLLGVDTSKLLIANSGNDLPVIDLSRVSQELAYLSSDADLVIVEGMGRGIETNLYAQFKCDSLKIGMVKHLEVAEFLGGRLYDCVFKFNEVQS

[7] = molecular target: T7, YMR027W (Saccharomyces cerevisiae, UniProt Q04371, N255A); assay: phosphatase activity compared with wild type; type: biochemical; conditions: alanine mutant of signature residue
T7 sequence (Q04371 1-470 N255A): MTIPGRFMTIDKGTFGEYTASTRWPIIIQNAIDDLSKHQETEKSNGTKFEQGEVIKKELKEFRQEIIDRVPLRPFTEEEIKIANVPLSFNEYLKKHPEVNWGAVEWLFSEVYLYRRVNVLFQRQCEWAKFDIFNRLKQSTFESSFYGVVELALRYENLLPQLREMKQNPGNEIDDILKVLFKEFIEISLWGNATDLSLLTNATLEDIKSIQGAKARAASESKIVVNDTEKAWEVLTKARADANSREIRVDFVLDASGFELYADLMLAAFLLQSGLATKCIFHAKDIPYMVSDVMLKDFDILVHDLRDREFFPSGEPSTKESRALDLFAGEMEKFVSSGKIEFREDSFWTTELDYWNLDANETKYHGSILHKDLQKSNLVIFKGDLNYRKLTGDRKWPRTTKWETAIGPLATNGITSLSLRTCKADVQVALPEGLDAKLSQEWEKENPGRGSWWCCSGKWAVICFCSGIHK

[8] = molecular target: the molecule itself; assay: SEC

## O=P(O)(O)OC[C@H]1OC(O)C[C@@H]1O (some centres unmarked) [2-deoxyribose 5-phosphate]
[1]
  S0.5: At2g17340 showed sigmoidal kinetics with ribose 5-phosphate or 2-deoxyribose 5-phosphate

## O=P(O)(O)OC[C@H]1OC(O)[C@H](O)[C@@H]1O (some centres unmarked) [ribose 5-phosphate]
[1]
  S0.5: At2g17340 showed sigmoidal kinetics with ribose 5-phosphate or 2-deoxyribose 5-phosphate

## Nc1nc2c([nH]c(=O)n2[C@H]2C[C@H](O)[C@@H](COP(=O)(O)OP(=O)(O)OP(=O)(O)O)O2)c(=O)[nH]1 [8-oxo-dGTP]
[2]
  kinetic constants: the kinetic constants for 8-oxo-dGTP were close to those for ADP

## O=P(O)(O)OC[C@H]1OC(O)(CO)[C@@H](O)[C@@H]1O (some centres unmarked) [F6P, fructose 6-phosphate]
[3]
  crystal structure, soaking with 10 mM fructose 6-phosphate, 1.77 Å: Crystal soaking using YMR027W and the substrate fructose 6-phosphate

## O=[N+]([O-])c1ccc(OP(=O)(O)O)cc1 [pNPP, p-nitrophenyl phosphate]
[4]
  catalytic activity: signature residues of YMR027W (Asp254, Asn255, and Asp292)
[5]
  catalytic activity: At2g17340 (Asp220, Asn221, and Asp256) abolished catalytic activity
[6]
  catalytic activity: At2g17340 (Asp220, Asn221, and Asp256) abolished catalytic activity
[7]
  catalytic activity: signature residues of YMR027W (Asp254, Asn255, and Asp292)

## Nc1ncnc2c1ncn2[C@@H]1O[C@H](COP(=O)(O)OP(=O)(O)O)[C@@H](O)[C@H]1O [ADP]
[2]
  kinetic constants: the kinetic constants for 8-oxo-dGTP were close to those for ADP

B1: Pyrococcus horikoshii DUF89 subfamily I protein PH1575 (enzyme, P. horikoshii)
chain: MKVQYECLTCMANQCQRIVEMATQDMDIRRRAMILAAKLLAKEYNENAIPAIAGSLIFLELYKFLGNDDPFIEYKLKSEEMARKVADIIKRKLKLDFELAVKLAIIGNVIDFSVGFSPEDLEEEVEKMLKDKLYIDDSKELFEEVKRAENILYITDNVGEHYFDAILIEKIREISNAEVYIAGKEGPIINDATVEDLKRAGLEKLGKVISTGTRIVGVPLKLVSREFMEAFNKADVIIAKGQGNFETLSEINDSRIFFLLKAKCPAVARELKVPKGALVCMRNKFKL
[8]
  stoichiometry N: 2

B2: Archaeoglobus fulgidus DUF89 subfamily I protein AF1104 (enzyme, A. fulgidus)
chain: MKISPLCPSCLLGRVYYEAKLVTDDEDLISQCVDESLKILAENYSSRPINAHLATRIHRRVYEILGVEDPYAEVKARANEVARQVLPLAKEIVEGSDDPFKTAVIVSIVGNNFDYGVQGHKVVEEEFRDFLKRKVQEGLKINDTERIKELSSGKVVYLTDNAGEIFFDTLLMKEIKRRCEKLTAVVRGRPIISDATIEDARLARVDKIADELLTNGKGAIGIIMDELPDETRKALEEADLIVAKGMANYECLSDGSLKPIAFLLTAKCEPVARDIGVNVGDMVAKVVE
[8]
  stoichiometry N: 2
